Tests used:
[1] = Neurologic toxicity determined using rotarod test in mice; format: organism-based; conditions: mouse, in vivo
[2] = Protective index (TD50/ED50); format: functional
Mus musculus [3] = organism: Mus musculus; assay: Effective dose required for maximal electroshock (MES)-induced seizures in mice.; format: functional
[4] = (§1) Neurologic toxicity determined using horizontal screen test in mice; format: organism-based; conditions: mouse, in vivo
Mus musculus [5] = organism: Mus musculus; assay: Effective dose required for maximal electroshock (MES)-induced seizures in mice in experiment 1; format: functional
Mus musculus [6] = organism: Mus musculus; assay: Effective dose required for maximal electroshock (MES)-induced seizures in mice in experiment 2; format: functional
[7] = Neurologic toxicity determined using horizontal screen test in mice in experiment 1; format: organism-based; conditions: mouse, in vivo
[8] = Neurologic toxicity determined using horizontal screen test in mice in experiment 2; format: organism-based; conditions: mouse, in vivo
Mus musculus [9] = organism: Mus musculus; assay: as §1; format: organism-based; conditions: in vivo

CC(=O)NC(C(=O)NCc1ccccc1)c1ncco1 (centres undefined)
TD50 [1]: 38.6 mg/kg
PI [2]: 3.7
ED50 (Mus musculus [3]; Mus musculus, read-out: ED50): 10.4 mg/kg

CC(=O)NC(C(=O)NCc1ccccc1)c1ccsc1 (centres undefined)
TD50 [4]: > 100 mg/kg

CC(=O)NC(C(=O)NCc1ccccc1)c1ccco1 (centres undefined)
TD50 [4]: ~40 mg/kg
PI [2]: 3.9

CC(=O)N[C@H](C(=O)NCc1ccc(C)cc1)c1ccco1
ED50 (Mus musculus [3]; Mus musculus, read-out: ED50): 43.6 mg/kg

CC(=O)NC(C(=O)NCc1ccccc1)n1cccc1 (centres undefined)
ED50 (Mus musculus [3]; Mus musculus, read-out: ED50): 80.2 mg/kg

CC(=O)NC(C(=O)NCc1ccccc1)c1c[nH]cn1 (centres undefined)
ED50 (Mus musculus [3]; Mus musculus, read-out: ED50): > 100 mg/kg

CC(=O)NC(C(=O)NNc1ccccn1)c1ccco1 (centres undefined)
ED50 (Mus musculus [3]; Mus musculus, read-out: ED50): > 100 mg/kg

CC(=O)NC(C(=O)NCc1ccccc1)c1nnn[nH]1 (centres undefined)
ED50 (Mus musculus [5]): > 30 mg/kg
ED50 (Mus musculus [6]): < 100 mg/kg

CC(=O)NC(C(=O)NCc1ccccc1)n1ccnc1 (centres undefined)
ED50 (Mus musculus [3]; Mus musculus, read-out: ED50): > 100 mg/kg

CC(=O)NC(C(=O)NCc1ccc(F)cc1)c1ccco1 (centres undefined)
PI [2]: 11.3

CC(=O)NC(C(=O)NCc1ccccc1)c1cccs1 (centres undefined)
TD50 [7]: > 30 mg/kg
TD50 [8]: < 100 mg/kg

CC(=O)NC(C(=O)NCc1ccncc1)c1ccco1 (centres undefined)
ED50 (Mus musculus [3]; Mus musculus, read-out: ED50): > 100 mg/kg

CC(=O)NC(C(=O)NCc1ccccc1)c1ncon1 (centres undefined)
ED50 (Mus musculus [5]): > 100 mg/kg
ED50 (Mus musculus [6]): < 300 mg/kg

CC(=O)NC(C(=O)NCc1ccccc1)n1cccn1 (centres undefined)
ED50 (Mus musculus [3]; Mus musculus, read-out: ED50): 16.5 mg/kg

CC(=O)NC(C(=O)NCc1ccccc1)n1cnnn1 (centres undefined)
ED50 (Mus musculus [3]; Mus musculus, read-out: ED50): > 300 mg/kg

CC(=O)NC(C(=O)NCc1ccccc1)c1ccccc1 (centres undefined)
TD50 [4]: > 40 mg/kg

CC(=O)NC(C(=O)NCc1cccnc1)c1ccco1 (centres undefined)
ED50 (Mus musculus [3]; Mus musculus, read-out: ED50): ~30 mg/kg

C/C(S)=N\C(C(=O)NCc1ccccc1)c1ccco1 (centres undefined)
ED50 (Mus musculus [3]; Mus musculus, read-out: ED50): 18.4 mg/kg

CC(=O)NC(C)(C(=O)NCc1ccccc1)c1ccco1 (centres undefined)
ED50 (Mus musculus [3]; Mus musculus, read-out: ED50): > 300 mg/kg

CC(=O)NC(C(=O)NCc1ccccc1)c1ccc[nH]1 (centres undefined)
TD50 [7]: > 30 mg/kg
TD50 [8]: < 100 mg/kg

CC(=O)N[C@H](C(=O)NCc1ccccc1)c1ccco1 (stereo in doubt; 4) [listing 1 of 2 here]
TD50 (Mus musculus [9]): ~ 40 mg kg-1
ED50 (Mus musculus [3]): 10.3 mg/kg

CC(=O)NC(C(=O)NCc1ccc[n+]([O-])c1)c1ccco1 (centres undefined)
ED50 (Mus musculus [3]; Mus musculus, read-out: ED50): ~30 mg/kg

CC(=O)NC(C(=O)NCc1ccccc1)c1nc[nH]n1 (centres undefined)
ED50 (Mus musculus [3]; Mus musculus, read-out: ED50): > 100 mg/kg

CC(=O)NC(C(=O)NCc1ccccc1)n1cncn1 (centres undefined)
ED50 (Mus musculus [5]): > 30 mg/kg
ED50 (Mus musculus [6]): < 100 mg/kg

CC(=O)NC(C(=O)NCc1cc[n+]([O-])cc1)c1ccco1 (centres undefined)
ED50 (Mus musculus [3]; Mus musculus, read-out: ED50): > 100 mg/kg

CC(=O)NC(C(=O)NCc1ccccc1)C1CCCO1 (centres undefined)
ED50 (Mus musculus [3]; Mus musculus, read-out: ED50): 89.8 mg/kg

C/C(S)=N/C(/C(S)=N/Cc1ccccc1)c1ccco1 (centres undefined)
ED50 (Mus musculus [3]; Mus musculus, read-out: ED50): > 100 mg/kg

CC(=O)N[C@@H](C(=O)NCc1ccccc1)c1ccco1
PI [2]: 7.2
ED50 (Mus musculus [3]; Mus musculus, read-out: ED50): 3.3 mg/kg

CC(=O)N[C@@H](C(=O)NCc1ccc(F)cc1)c1ccco1
TD50 [4]: 14.4 mg/kg
PI [2]: 4.1
ED50 (Mus musculus [3]; Mus musculus, read-out: ED50): 3.5 mg/kg

CC(=O)N[C@H](C(=O)NCc1ccccc1)c1ccco1 (stereo in doubt; (S)-4)
TD50 (Mus musculus [9]): > 200 mg/kg
ED50 (Mus musculus [3]): >25 mg/kg

CC(=O)NC(C(=O)NCc1ccccc1)c1nccs1 (centres undefined)
TD50 [1]: 69.1 mg/kg
PI [2]: 5.7
ED50 (Mus musculus [3]; Mus musculus, read-out: ED50): 12.1 mg/kg

CC(=O)N[C@H](C(=O)NCc1ccccc1)c1ccco1 (stereo in doubt; 4) [listing 2 of 2 here]
PI [2]: 3.9

CC(=O)N[C@H](C(=O)NCc1ccc(C(F)(F)F)cc1)c1ccco1
ED50 (Mus musculus [3]; Mus musculus, read-out: ED50): 22.8 mg/kg

CC(=O)NC(C(=O)NCc1ccccc1)c1ncc[nH]1 (centres undefined)
ED50 (Mus musculus [3]; Mus musculus, read-out: ED50): > 100 mg/kg

Reference: ChEMBL document CHEMBL1126877, “Synthesis and anticonvulsant activities of alpha-heterocyclic alpha-acetamido-N-benzylacetamide derivatives” (J Med Chem, 1993)
